Data taken from US11844801B2, “Oral compositions of MK2 pathway inhibitor for treatment of immune conditions” (priority 2020, dated 2023).
Values joined by “and” are separate entries in the source; they are usually repeats but may differ in a detail not shown here. Equal values may be shown once. Read-outs that look alike come from different tables or passages of the source.

Test: Phase 1 SAD/MAD pharmacokinetics of oral ATI-450 in healthy subjects (incl. 80/120 mg BID extension)
Type: in vivo, human
Conditions: for concentration at 7 day / concentration at 2 day / concentration at 3 day / concentration at 4 day / concentration at 5 day / concentration at 6 day: read-out: Ctrough; for Tmax: read-out: Tmax, median (min, max); for concentration at 2 day: day 2; for concentration at 3 day: day 3; for concentration at 4 day: day 4; for concentration at 5 day: day 5; for concentration at 6 day: day 6; for half-life: read-out: t1/2 (converted)
Experimental: Study Design. […] Single ascending dose (SAD) cohorts. […] Multiple ascending dose (MAD) cohorts. […] Blood Sampling and Bioanalysis. Two-milliliter blood samples were collected for PK analysis. […] The lower limit of quantification was 0.500 ng/mL. Pharmacokinetics. […] Bioanalysis Assay of ATI-450. Sample processing was performed by protein precipitation using a 50.0-μL sample volume. […] A triple quadrupole 6500 mass spectrometer equipped with a turbo-ion spray source was used for detection in positive ion mode. […] A linear calibration curve ranging from 0.500 to 500 ng/mL with a 1/x^2 weighting factor was used. The method was minimally required to have intra- and inter-day precision (coefficients of variation) for pooled plasma quality control samples of ≤15% except at the lower limit of quantitation, where ≤20% was acceptable. The calculated concentrations (both inter- and intra-day) were required to be within 15% of nominal at all concentrations except the lower limit of quantitation, where up to 20% deviation from nominal was acceptable. The precision and accuracy of the method exceeded these minimum requirements for assay validation.

[1] = 100 mg single dose, fed vs fasted
[2] = both sexes, human, plasma, oral, 10 mg, 10 mg BID
[3] = both sexes, human, plasma, oral, 10 mg, 10 mg BID, day 7
[4] = both sexes, human, plasma, oral, 30 mg, 30 mg BID
[5] = both sexes, human, plasma, oral, 30 mg, 30 mg BID, day 7
[6] = both sexes, human, plasma, oral, 50 mg, 50 mg BID, day 1
[7] = both sexes, human, plasma, oral, 50 mg, 50 mg BID
[8] = both sexes, human, plasma, oral, 50 mg, 50 mg BID, day 7

SMILES: Cc1cnc(-c2ccnc(C(C)(C)O)n2)cc1-n1c(C)cc(OCc2ncc(F)cc2F)c(Cl)c1=O (single isomer, unassigned) [ATI-450, 3-chloro-4-((3,5-difluoropyridin-2-yl)methoxy)-2′-(2-(2-hydroxypropan-2-yl)pyrimidin-4-yl)-5′,6-dimethyl-2H-[1,4′-bipyridin]-2-one]
- AUC(0-t) (10 mg BID, day 7): 364.6 ± 110.7 ng·h/mL
- AUCtau (10 mg BID, day 7): 287.8 ± 81.5 ng·h/mL
- CLss/F (10 mg BID, day 7): 37.4 ± 10.9 L/h
- Cavg (10 mg BID, day 7): 24.0 ± 6.8 ng/mL
- Cmin (10 mg BID, day 7): 8.1 ± 3.1 ng/mL
- Ctrough (10 mg BID, day 7): 11.8 ± 5.2 ng/mL
- Tmax, median (min, max) (10 mg BID, day 7): 2.0 (2.0-2.0) h
- Vss/F (10 mg BID, day 7): 517.4 ± 203.2 L
- AUC(0-t) (30 mg BID, day 7): 1204.6 ± 309.1 ng·h/mL
- AUCtau (30 mg BID, day 7): 908.9 ± 163.1 ng·h/mL
- CLss/F (30 mg BID, day 7): 33.9 ± 5.9 L/h
- Cavg (30 mg BID, day 7): 75.6 ± 13.4 ng/mL
- Cmin (30 mg BID, day 7): 28.8 ± 10.7 ng/mL
- Ctrough (30 mg BID, day 7): 41.1 ± 18.3 ng/mL
- Tmax, median (min, max) (30 mg BID, day 7): 2.0 (1.0-4.0) h
- Vss/F (30 mg BID, day 7): 483.1 ± 85.1 L
- t1/2 (30 mg BID, day 7): 10.3 ± 3.2 h
- Tmax, median (min, max) (50 mg BID, day 1): 2.0 (2.0-4.0) h
- AUC0-12 (50 mg BID, day 7): 1507.8 (659.9) ng · h/mL
- CLss/F (50 mg BID, day 7): 37.3 ± 11.7 L/h
- Cavg (50 mg BID, day 7): 125.6 ± 55.0 ng/mL
- Cmax (50 mg BID, day 7): 219.0 (77.8) ng/mL
- Cmin (50 mg BID, day 7): 58.7 ± 32.8 ng/mL
- Ctrough (50 mg BID, day 7): 87.9 ± 49.4 ng/mL
- Tmax, median (min, max) (50 mg BID, day 7): 3.0 (1.0, 4.0) h and 3.0 (1.0-4.0) h
- CLss/F (80 mg BID, day 7): 33.2 ± 7.6 L/h
- Ctrough (80 mg BID, day 7): 158.3 ± 60.3 ng/mL
- AUC0-∞ higher in the fed state [1]: about 24%
- Cmax lower in the fed state [1]: about 9%
- CLss/F (120 mg BID, day 7): 52.3 ± 17.4 L/h
- Ctrough (120 mg BID, day 7): 155.8 ± 93.1 ng/mL
- accumulation after multiple dosing (10-50 mg BID): up to 1.4 fold
- terminal half-life (mean t1/2), range over cohorts (MAD cohorts 10-50 mg BID, day 7): 9 to 12 h
- concentration at 7 day (both sexes, human, plasma, oral, 10 mg BID, day 7): 11.8 ng/mL
- AUC(0-t) (both sexes, human, plasma, oral, 10 mg, 10 mg BID, day 1, read-out: AUC0-12): 200 ng·h/mL
- Cmax (both sexes, human, plasma, oral, 10 mg, 10 mg BID, day 1, read-out: Cmax): 34.3 ng/mL
- Tmax (both sexes, human, plasma, oral, 10 mg, 10 mg BID, day 1): 2 h
- concentration at 2 day [2]: 10.1 ± 4.7 ng/mL
- concentration at 3 day [2]: 9.8 ± 4.5 ng/mL
- concentration at 4 day [2]: 9.2 ± 5 ng/mL
- concentration at 5 day [2]: 9.6 ± 4.7 ng/mL
- concentration at 6 day [2]: 10.7 ± 4.9 ng/mL
- AUC(0-t) (both sexes, human, plasma, oral, 10 mg, 10 mg BID, day 7, read-out: AUC0-12): 288 ng·h/mL
- Cmax (both sexes, human, plasma, oral, 10 mg, 10 mg BID, day 7, read-out: Cmax): 51.8 ng/mL
- Tmax [3]: 2 h
- half-life [3]: 9.6 h
- concentration at 7 day (both sexes, human, plasma, oral, 30 mg BID, day 7): 41.1 ng/mL
- AUC(0-t) (both sexes, human, plasma, oral, 30 mg, 30 mg BID, day 1, read-out: AUC0-12): 681 ng·h/mL
- Cmax (both sexes, human, plasma, oral, 30 mg, 30 mg BID, day 1, read-out: Cmax): 126 ng/mL
- Tmax (both sexes, human, plasma, oral, 30 mg, 30 mg BID, day 1): 2 h
- concentration at 2 day [4]: 37.5 ± 18.8 ng/mL
- concentration at 3 day [4]: 44.1 ± 29.3 ng/mL
- concentration at 4 day [4]: 36.8 ± 14.9 ng/mL
- concentration at 5 day [4]: 34.9 ± 13.8 ng/mL
- concentration at 6 day [4]: 38.9 ± 16.2 ng/mL
- AUC(0-t) (both sexes, human, plasma, oral, 30 mg, 30 mg BID, day 7, read-out: AUC0-12): 909 ng·h/mL
- Cmax (both sexes, human, plasma, oral, 30 mg, 30 mg BID, day 7, read-out: Cmax): 146 ng/mL
- Tmax [5]: 2 h
- half-life [5]: 10.3 h
- concentration at 7 day (both sexes, human, plasma, oral, 50 mg BID, day 7): 87.9 ng/mL
- AUC [6]: 1180 ± 340 ng·h/mL
- AUC(0-t) (both sexes, human, plasma, oral, 50 mg, 50 mg BID, day 1, read-out: AUC0-12): 1180 ng·h/mL
- AUC(0-t) (both sexes, human, plasma, oral, 50 mg, 50 mg BID, day 1, read-out: AUC0-t): 1180 ± 340 ng·h/mL
- Cmax (both sexes, human, plasma, oral, 50 mg, 50 mg BID, day 1, read-out: Cmax): 187 ng/mL
- Tmax [6]: 2 h
- concentration at 2 day [7]: 84 ± 40.6 ng/mL
- concentration at 3 day [7]: 80.6 ± 44.2 ng/mL
- concentration at 4 day [7]: 81.5 ± 49.6 ng/mL
- concentration at 5 day [7]: 81.5 ± 43.9 ng/mL
- concentration at 6 day [7]: 76.4 ± 38.6 ng/mL
- AUC [8]: 1510 ± 660 ng·h/mL
- AUC(0-t) (both sexes, human, plasma, oral, 50 mg, 50 mg BID, day 7, read-out: AUC0-12): 1510 ng·h/mL
- AUC(0-t) (both sexes, human, plasma, oral, 50 mg, 50 mg BID, day 7, read-out: AUC0-24, total daily exposure calculated as AUC0-12 × 2): 3040 ng·h/mL
- AUC(0-t) (both sexes, human, plasma, oral, 50 mg, 50 mg BID, day 7, read-out: AUC0-t): 2260 ± 1070 ng·h/mL
- Cmax (both sexes, human, plasma, oral, 50 mg, 50 mg BID, day 7, read-out: Cmax): 219 ng/mL
- Tmax [8]: 3 h
- half-life [8]: 11.6 h
- concentration at 7 day (both sexes, human, plasma, oral, 80 mg BID, day 7): 158 ng/mL
- AUC (both sexes, human, plasma, oral, 80 mg, 80 mg BID, day 1): 1690 ± 454 ng·h/mL
- AUC(0-t) (both sexes, human, plasma, oral, 80 mg, 80 mg BID, day 1, read-out: AUC0-t): 1680 ± 451 ng·h/mL
